# Assay results reported in patent US12552783B2, “Modulators of proteolysis and associated methods of use” (Arvinas Operations, Inc., priority 2018, dated 2026).
# Molecular target: KRas (Homo sapiens, UniProt P01116, G12C)
# Assay: KRas degradation in NCI-H2030 cells by Western blot, normalized to GAPDH (data of Table 14)
# Assay type: cell-based
# Design: host or cells: NCI-H2030
# Conditions: for Dmax: NCI-H2030
# Protocol: Cell Lines, Antibodies, and Reagents. NCI-H2030 (CRL-5914) and SW1573 (CRL-2170) cells were purchased from ATCC. Both cell lines are homozygous for the G12C mutation in KRas. NCI-H2030 cells were cultured in RPMI-1640 medium containing 1% penicillin-streptomycin and 10% fetal bovine serum (FBS). SW1573 cells were cultured in DMEM containing 1% penicillin-streptomycin and 10% FBS. The KRas detection antibody (Cat. No. LS-C175665) was purchased from LifeSpan Biosciences and was used at a dilution of 1:2000. GAPDH was detected using an antibody purchased from Cell Signaling Technology (Cat. No. 5174) and was diluted 1:3000. Secondary anti-mouse and anti-rabbit detection antibodies were purchased from Cell Signaling Technology (Cat. Nos. 7076 and 7074, respectively).
# Compound Treatment and Western Blotting of the Data of Table 14. Either NCI-H2030 or SW1573 cells were plated in 12-well plates and allowed to adhere overnight at 37° C. in an incubator containing 5% CO2. The following day, the medium was replaced with the appropriate medium lacking FBS to induce starvation. Cells were returned to the incubator for an additional 24 hours following media exchange. […] Cells were treated with VHL-based compounds for 24 hours and all other compounds for 72 hours. Following treatment, cells were lysed in RIPA buffer (Thermo Fisher Cat. No. 89900) containing phosphatase (Thermo Fisher Cat. No. 1861277) and protease (Thermo Fisher Cat. No. 78429) inhibitor cocktails. Lysates were cleared at 13,000 rpm for 15 minutes and supernatants were assayed for total protein concentration using the Pierce BCA assay system (Thermo Fisher Cat. No. 23225). For each sample, 10 μg total protein was resolved on a 12% Bis-Tris gel and then transferred to a nitrocellulose membrane. After blocking in 3% BSA in TBST (Tris-buffered Saline with 0.1% Tween-20) for 1 hour at room temperature, membranes were probed with the primary antibody (LS Bio Cat. No. LS-C175665) overnight at 4° C. After incubation with the secondary antibody, the following day membranes were visualized using the SuperSignal™ West Femto substrate (Thermo Fisher Cat. No. 34095). The KRas signal in each lane was normalized to GAPDH and percent degradation was either estimated as less than 25% by visual inspection (C in Table 13) or quantitated relative to the DMSO control lane using BIO-RAD Image Lab 5.2.1, and all data was plotted using GraphPad PRISM 6.07.
# DC50 is the half-maximal degradation concentration—i.e., the concentration at which 50% degradation is observed. DMax is the maximum degradation efficacy is achieved—i.e., the maximal degradation observed) degradation data.
smiles,measurement,setting,value
"CC(=O)N1CCN(c2nc(NCCC(=O)N(C)CCOCC(=O)N[C@H](C(=O)N3C[C@H](O)C[C@H]3C(=O)N[C@@H](C)c3ccc(-c4scnc4C)cc3)C(C)(C)C)nc3c(F)c(-c4cc(O)cc5ccccc45)c(Cl)cc23)CC1 [compound 200, (2S,4R)-1-((2S)-2-(2-(2-(3-((4-(4-acetylpiperazin-1-yl)-6-chloro-8-fluoro-7-(3-hydroxynaphthalen-1-yl)quinazolin-2-yl)amino)-N-methylpropanamido)ethoxy)acetamido)-3,3-dimethylbutanoyl)-4-hydroxy-N-((S)-1-(4-(4-methylthiazol-5-yl)phenyl)ethyl)pyrrolidine-2-carboxamide]",Percent Degradation at Indicated Concentration (μM),"H2030, 0.3 μM",C (Percent Degradation: C ≤ 35)
same,Percent Degradation at Indicated Concentration (μM),"H2030, 1 μM",C (Percent Degradation: C ≤ 35)
same,Percent Degradation at Indicated Concentration (μM),"H2030, 3 μM",C (Percent Degradation: C ≤ 35)
same,Dmax,,≤ 35%
"C=CC(=O)N1CCN(c2nc(O[C@H](C)CN3CCC(OCCOCCOCCOCCOc4ccc5c(c4)C(=O)N(C4CCC(=O)NC4=O)C5=O)CC3)nc3c2CCN(c2cc(O)cc4ccccc24)C3)CC1 (stereo partly drawn) [compound 419, 5-(2-(2-(2-(2-((1-((R)-2-((4-(4-acryloylpiperazin-1-yl)-7-(3-hydroxynaphthalen-1-yl)-5,6,7,8-tetrahydropyrido[3,4-d]pyrimidin-2-yl)oxy)propyl)piperidin-4-yl)oxy)ethoxy)ethoxy)ethoxy)ethoxy)-2-(2,6-dioxopiperidin-3-yl)isoindoline-1,3-dione]",Percent Degradation at Indicated Concentration (μM),"H2030 cells, 0.3 μM",C (Percent Degradation: C ≤ 35)
same,Percent Degradation at Indicated Concentration (μM),"H2030 cells, 1 μM",C (Percent Degradation: C ≤ 35)
same,Percent Degradation at Indicated Concentration (μM),"H2030 cells, 3 μM",C (Percent Degradation: C ≤ 35)
"C=CC(=O)N1CCN(c2nc(NCCC(=O)N(C)CCOCCOCCOCCOCCOCC(=O)N[C@H](C(=O)N3C[C@H](O)C[C@H]3C(=O)N[C@@H](C)c3ccc(-c4scnc4C)cc3)C(C)(C)C)nc3c(F)c(-c4c(O)cccc4F)c(Cl)cc23)CC1 (atropisomer, axis not shown) [compound 213, (2S,4R)-1-((S)-24-(((S)-4-(4-acryloylpiperazin-1-yl)-6-chloro-8-fluoro-7-(2-fluoro-6-hydroxyphenyl)quinazolin-2-yl)amino)-2-(tert-butyl)-21-methyl-4,22-dioxo-6,9,12,15,18-pentaoxa-3,21-diazatetracosanoyl)-4-hydroxy-N-((S)-1-(4-(4-methylthiazol-5-yl)phenyl)ethyl)pyrrolidine-2-carboxamide]",Percent Degradation at Indicated Concentration (μM),"H2030, 3 μM",C (Percent Degradation: C ≤ 35)
"CC(=O)N1CCN(c2nc(NCCC(=O)N(C)CCOCCOCCOCCOCCOCC(=O)N[C@H](C(=O)N3C[C@H](O)C[C@H]3C(=O)N[C@@H](C)c3ccc(-c4scnc4C)cc3)C(C)(C)C)nc3c(F)c(-c4cc(O)cc5ccccc45)c(Cl)cc23)CC1 [compound 204, (2S,4R)-1-((2S)-24-((4-(4-acetylpiperazin-1-yl)-6-chloro-8-fluoro-7-(3-hydroxynaphthalen-1-yl)quinazolin-2-yl)amino)-2-(tert-butyl)-21-methyl-4,22-dioxo-6,9,12,15,18-pentaoxa-3,21-diazatetracosanoyl)-4-hydroxy-N-((S)-1-(4-(4-methylthiazol-5-yl)phenyl)ethyl)pyrrolidine-2-carboxamide]",Percent Degradation at Indicated Concentration (μM),"H2030, 0.3 μM",C (Percent Degradation: C ≤ 35)
same,Percent Degradation at Indicated Concentration (μM),"H2030, 1 μM",C (Percent Degradation: C ≤ 35)
same,Percent Degradation at Indicated Concentration (μM),"H2030, 3 μM",C (Percent Degradation: C ≤ 35)
same,Dmax,,≤ 35%
"O=C1CCC(N2C(=O)c3ccc(OCCOCC/C=C/C(=O)N4CCN(c5ncnc6c(F)c(-c7cc(O)cc8ccccc78)c(Cl)cc56)CC4)cc3C2=O)C(=O)N1 (stereo not shown) [compound 168, (E)-5-(2-((5-(4-(6-chloro-8-fluoro-7-(3-hydroxynaphthalen-1-yl)quinazolin-4-yl)piperazin-1-yl)-5-oxopent-3-en-1-yl)oxy)ethoxy)-2-(2,6-dioxopiperidin-3-yl)isoindoline-1,3-dione]",Percent Degradation at Indicated Concentration (μM),"H2030, 0.3 μM",C (Percent Degradation: C ≤ 35)
same,Percent Degradation at Indicated Concentration (μM),"H2030, 1 μM",C (Percent Degradation: C ≤ 35)
same,Percent Degradation at Indicated Concentration (μM),"H2030, 3 μM",C (Percent Degradation: C ≤ 35)
same,Dmax,,≤ 35%
"C=CC(=O)N1CCN(c2nc(NCCC(=O)N(C)CCOCCOCCOCC(=O)N[C@H](C(=O)N3C[C@H](O)C[C@H]3C(=O)N[C@@H](C)c3ccc(-c4scnc4C)cc3)C(C)(C)C)nc3c(F)c(-c4c(O)cccc4F)c(Cl)cc23)CC1 (atropisomer, axis not shown) [compound 210, (2S,4R)-1-((S)-18-((4-(4-acryloylpiperazin-1-yl)-6-chloro-8-fluoro-7-((R)-2-fluoro-6-hydroxyphenyl)quinazolin-2-yl)amino)-2-(tert-butyl)-15-methyl-4,16-dioxo-6,9,12-trioxa-3,15-diazaoctadecanoyl)-4-hydroxy-N-((S)-1-(4-(4-methylthiazol-5-yl)phenyl)ethyl)pyrrolidine-2-carboxamide]",Percent Degradation at Indicated Concentration (μM),"H2030, 0.3 μM",C (Percent Degradation: C ≤ 35)
same,Percent Degradation at Indicated Concentration (μM),"H2030, 1 μM",C (Percent Degradation: C ≤ 35)
same,Percent Degradation at Indicated Concentration (μM),"H2030, 3 μM",C (Percent Degradation: C ≤ 35)
same,Dmax,,≤ 35%
"C=CC(=O)N1CCN(c2nc(NCCC(=O)N(C)CCOCCOCCOCCNC(=O)c3ccc(NC(=O)[C@@H]4N[C@@H](CC(C)(C)C)[C@](C#N)(c5ccc(Cl)cc5F)[C@H]4c4cccc(Cl)c4F)c(OC)c3)nc3c(F)c(-c4cc(O)cc5ccccc45)c(Cl)cc23)CC1 [compound 303, (2R,3S,4R,5S)-N-(4-((15-((4-(4-acryloylpiperazin-1-yl)-6-chloro-8-fluoro-7-(3-hydroxynaphthalen-1-yl)quinazolin-2-yl)amino)-12-methyl-13-oxo-3,6,9-trioxa-12-azapentadecyl)carbamoyl)-2-methoxyphenyl)-3-(3-chloro-2-fluorophenyl)-4-(4-chloro-2-fluorophenyl)-4-cyano-5-neopentylpyrrolidine-2-carboxamide]",Percent Degradation at Indicated Concentration (μM),"H2030, 0.3 μM",C (Percent Degradation: C ≤ 35)
same,Percent Degradation at Indicated Concentration (μM),"H2030, 1 μM",C (Percent Degradation: C ≤ 35)
same,Percent Degradation at Indicated Concentration (μM),"H2030, 3 μM",C (Percent Degradation: C ≤ 35)
same,Dmax,,≤ 35%
"C=CC(=O)N1CCN(c2nc(NCCC(=O)N(C)CCOCCOCCOCCOCCOc3ccc4c(c3)C(=O)N(C3CCC(=O)NC3=O)C4=O)nc3c(F)c(-c4cc(O)cc5ccccc45)c(Cl)cc23)CC1 (stereo not shown) [compound 63, 3-((4-(4-acryloylpiperazin-1-yl)-6-chloro-8-fluoro-7-(3-hydroxynaphthalen-1-yl)quinazolin-2-yl)amino)-N-(14-((2-(2,6-dioxopiperidin-3-yl)-1,3-dioxoisoindolin-5-yl)oxy)-3,6,9,12-tetraoxatetradecyl)-N-methylpropanamide]",Percent Degradation at Indicated Concentration (μM): 0.1,"H2030 cells, 0.1 μM",C (C ≤ 35)
same,Percent Degradation at Indicated Concentration (μM): 0.3,"H2030 cells, 0.3 μM",C (C ≤ 35)
same,Percent Degradation at Indicated Concentration (μM): 1,"H2030 cells, 1 μM",C (C ≤ 35)
same,Dmax,H2030 cells,≤ 35%
